We go through 9 molecules from publication PMC9762759, “High-throughput discovery of novel small-molecule inhibitors of acid Ceramidase” (Journal of Enzyme Inhibition and Medicinal Chemistry, 2022).

Broadly, the IC50 is the concentration that inhibits the measured activity by half. By inhibition is commonly meant the drop in the measured response relative to a control, in per cent.

In one experiment the target is T1, acid ceramidase (AC) (Homo sapiens, UniProt Q13510).
T1 construct: expressed in transfected cells
T1 sequence (Q13510 22-395): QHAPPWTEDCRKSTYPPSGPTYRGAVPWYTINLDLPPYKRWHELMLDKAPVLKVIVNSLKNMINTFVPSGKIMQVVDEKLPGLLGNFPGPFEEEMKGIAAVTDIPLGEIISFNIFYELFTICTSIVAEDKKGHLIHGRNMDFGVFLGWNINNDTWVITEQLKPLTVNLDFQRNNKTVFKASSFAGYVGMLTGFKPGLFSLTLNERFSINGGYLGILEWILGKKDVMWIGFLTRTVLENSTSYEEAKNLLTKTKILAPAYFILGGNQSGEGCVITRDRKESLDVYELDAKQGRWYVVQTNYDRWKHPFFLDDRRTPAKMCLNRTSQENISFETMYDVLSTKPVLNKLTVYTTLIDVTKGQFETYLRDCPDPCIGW
Nature of the experiment: Acid ceramidase HTS assay, 384-well fluorogenic (RBM14-C12), cell lysates. Format: biochemical. As to conditions: for IC50: dose-titration, 8-point two-fold dilution from 200 micromolar, 95% confidence interval in brackets, means of three replicates; for inhibition at 20 µM: primary assay, single-point concentration of 20 μM, lysates of AC-overexpressing A375 melanoma cells, substrate RBM14-C12 20 µM, pH 4.5. As for the experimental part:
To start with, the final reaction volume was adapted from 100 µL (96-well-format) to 32 µL (384 well-format) with a final concentration of substrate of 20 µM. Next, protein concentration was adjusted using cell lysates of AC-overexpressing A375 melanoma cells. Ideally, the optimal amount of protein is the one that ensures reaction linearity over a period of time together with less than 10% of substrate depletion, in order to assume that the enzyme operates at steady-state conditions. Thus, different amounts of cell lysates were mixed with the substrate and product formation was measured over 1 h. […] Finally, an amount of 0.4 µg of protein was chosen, as higher amounts of proteins were not in the linear portion whereas lower amounts would compromise the signal window. The optimal incubation time of the reaction mixture was next explored. […] As a first validation step, we performed a control run consisting of 60 wells representing AC activity and 60 wells representing the signal in absence of the enzyme. […] The calculated coefficients of variation (CV) for both the high and low controls were 6.08% and 17.1% respectively.
After having successfully established the optimal reaction conditions in a 384-well format, we employed this newly miniaturised AC assay in a pilot screen against a library of 4100 compounds. The screen was carried out at a single dose of 20 µM for each library compound in 6% DMSO (v/v) and in duplicate. The acid ceramidase inhibitor SOCLAC was used as a pharmacological control for the assay. The Z’-factor per plate were consistent with those obtained during the initial validation. […] An example hit map from one screening plate is shown (Figure 2(C)). The inhibitory activity of these hits was then validated in an additional assay performed at a single-point concentration in triplicates.
To confirm the results from the primary screening, top hits were cherry-picked and tested in a concentration-dependent response assay with triplicates per sample. Thus, 101 compounds were then subjected to 8-points two-fold dilution series starting at a maximum concentration of 200 micromolar.
(§1) The A375 cell line stably overexpressing ASAH1 under the control of a tetracycline/doxycycline-responsive promoter was kindly provided by Dr. Carmen Bedia and Prof. Thierry Levade[17]. The antibiotic selection of this cell line was performed with blasticidin (3 µg/mL) and hygromycin B (250 µg/mL). Ectopic expression of AC was induced with doxycycline at 1 µg/mL for 24 h before use. Cells were suspended in the appropriate volume of a 0.25 M saccharose solution with the proteases inhibitors aprotinin (1 mg/mL), leupeptin (1 mg/mmL) and PMSF (100 mM). The suspension was submitted to three cycles of a 5 s sonication (probe) at 10 watts/5 s resting on ice. The cell lysate was centrifuged at 600 g for 5 min. The supernatant was collected and protein concentration was determined with BSA as a standard using the bicinchoninic acid (BCA) protein determination kit (Thermo Scientific) according to the manufacturer’s instructions.
A previously described 96-well plate assay[25] was miniaturised into a 384-well plate format with a final reaction volume of 32 µL. Plated compounds were diluted with a mixture of DMSO/H2O (1.6 µL/18 µL), and after centrifugation, 3.2 µL were dispensed into a new 384-well plate, so that the final concentration of the compound in the final reaction volume of 32 µL was 20 µM and the DMSO content of the assay was 1%. Next, 20.8 µL of a substrate solution of RBM14-C12 in sodium acetate buffer (25 mM, pH 4.5) was added for a final concentration of 20 µM, followed by the addition of 8 µL of a 0.25 M sucrose solution of cell lysates from AC-overexpressing A375 melanoma cells containing 0.4 µg of protein The reaction was terminated after 60 min incubation at 37 °C by adding 8 µL of methanol. Oxidation was performed by treatment with 32 µL of a [2.5 mg/mL] solution of NaIO4 in 100 mM glycine-NaOH buffer (pH 10.6). […]

Experiment [1] deals with T2, acid ceramidase in AC overexpressing A375 cells (Homo sapiens, UniProt Q13510).
T2 construct: expressed in transfected cells
T2 sequence (Q13510 22-395): T1 sequence (Q13510 22-395)
Description: Fluorogenic ceramidase activity assay in intact cells (RBM14-C12). It is filed as cell-based. The following applies: for inhibition at 20 µM: A-375, single-point concentration of 20 µM, 3 h, triplicate. Here is the method:
Cell-based assays allow evaluating biological activity in a more physiologically relevant system that also considers additional factors that might have a positive impact on inhibitory potency such as permeabilization through cellular membranes, metabolisation or concentration by intracellular compartmentalisation. Thus, the activity of the nine selected hits was next examined in intact cells using AC overexpressing A375 cells and the fluorogenic substrate RBM14-C12. First, compounds were tested in a primary screening assay. Measurements were performed in triplicated at a single-point concentration of 20 µM.
as §1
To determine activity in intact cells, 2 × 10^4 cells/well were seeded in 96-well plates 24 h prior to the assay and maintained at 37 °C and 5% CO2. Overexpression of AC was induced with doxycycline at 1 µg/mL for 24 h. […] After incubation at 37 °C for 1 h in the dark, 100 µL/well of 100 mM glycine-NaOH buffer (pH 10.6) were added and fluorescence was measured spectrophotometrically at excitation and emission wavelengths of 355 and 460 nm, respectively. […]

In experiment [2] the target is T3, recombinant human NC (rhNC) (Homo sapiens, UniProt Q9NR71).
T3 construct: purchased R&D Systems
Nature of the experiment: Neutral ceramidase assay, fluorogenic substrate RBM14-C24:1. As to conditions: single-point concentration of 50 μM; means of three replicates. It is filed as biochemical. As for the experimental part:
As mentioned above, hydrolysis of ceramides occurs by the action of ceramidases which are encoded by five known genes and are distinguished by the pH required for optimal activity. A common problem with AC inhibitors, especially those one with a scaffold related to the structure of ceramide, is the lack of selectivity over other ceramidases. Thus, to discard a selectivity issue, the activity of nine detected hits against neutral ceramidase was next explored at 50 µM. Activity over NC was tested using recombinant human NC (rhNC) and a specific NC substrate bearing a nervonic acid amide (RBM14-C24:1)[30]. Remarkably, none of the molecules elicited a significant inhibitory activity, thereby confirming the selective inhibition of AC over NC (Supplemental Table 1).
The NC assay was performed in 96-well plates at a final volume of 100 µL/well. Reaction buffers was 25 mM phosphate buffer 150 mM NaCl 1% (NaChol) pH 7.4. The reaction mixtures contained 25 µL/well of protein (5 ng recombinant NC R&D Systems, >95% pure), 70 µL/well of substrate (prepared from 4 mM stock solutions in ethanol) and 5 µL/well of inhibitor (prepared from 1 mM stock solutions in DMSO/H2O). Reaction mixtures were incubated at 37 °C for 1 h and reactions were stopped with 25 µL/well of MeOH followed by 100 µL/well of NaIO4 (2.5 mg/mL in 100 mM glycine-NaOH buffer, pH 10.6). After incubation at 37 °C for 1 h in the dark, 100 µL/well of 100 mM glycine-NaOH buffer (pH 10.6) was added and fluorescence was measured spectrophotometrically at excitation and emission wavelenght of 355 and 460 nm, respectively. The same reaction mixtures without enzymes were used as blanks.

T3 sequence (Q9NR71 whole entry): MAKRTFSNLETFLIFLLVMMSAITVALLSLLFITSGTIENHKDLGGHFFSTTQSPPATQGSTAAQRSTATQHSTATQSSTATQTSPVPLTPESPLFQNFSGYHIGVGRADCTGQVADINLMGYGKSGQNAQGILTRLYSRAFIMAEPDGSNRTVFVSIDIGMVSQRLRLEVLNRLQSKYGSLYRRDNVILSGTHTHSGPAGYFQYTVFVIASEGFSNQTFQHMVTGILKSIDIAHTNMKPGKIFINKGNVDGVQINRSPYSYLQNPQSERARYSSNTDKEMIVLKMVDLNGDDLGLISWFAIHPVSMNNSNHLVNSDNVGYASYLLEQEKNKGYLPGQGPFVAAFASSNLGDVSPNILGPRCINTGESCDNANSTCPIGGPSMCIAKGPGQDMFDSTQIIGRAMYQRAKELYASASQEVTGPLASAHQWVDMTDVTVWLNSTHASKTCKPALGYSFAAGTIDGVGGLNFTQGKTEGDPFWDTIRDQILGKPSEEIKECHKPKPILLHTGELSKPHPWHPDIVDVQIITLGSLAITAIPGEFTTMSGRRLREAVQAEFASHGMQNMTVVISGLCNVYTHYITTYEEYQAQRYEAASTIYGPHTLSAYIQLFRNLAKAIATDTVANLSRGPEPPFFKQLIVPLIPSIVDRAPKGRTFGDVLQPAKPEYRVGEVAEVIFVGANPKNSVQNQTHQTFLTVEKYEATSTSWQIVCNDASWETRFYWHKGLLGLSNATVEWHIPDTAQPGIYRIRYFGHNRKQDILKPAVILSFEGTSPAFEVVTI

Consider `CN(CCc1ccccn1)S(=O)(=O)c1cccc(Br)c1` [W000113402_C12], for which the IC50 is 10.6 µM against acid ceramidase (AC) and 32 µM in experiment [1] (interval (24.3–44.7) printed, read-out: IC50 in the cell-based assay). For the same molecule, the values for the inhibition at 20 µM (against acid ceramidase (AC); in experiment [1]) were 75.5% and 53%, respectively. For the same molecule, the inhibition at 50 µM in experiment [2] was -5.9%.

Turning to `CC(C)(C)CC(=O)N1CCN(c2cccc(C(F)(F)F)c2)CC1` [W000113414_C16], at acid ceramidase (AC), the IC50 stood at 48.9 µM and the inhibition at 20 µM was 59%. Further, the inhibition at 50 µM in experiment [2] is -4.1%.

With `CCC(CC)(c1ccc(OCC2(C(C)(C)C)OCCO2)c(C)c1)c1cc(C)c2oc(C(=O)NCC(=O)O)cc2c1` [W000113414_I13], the inhibition at 20 µM against acid ceramidase (AC) was 67.4%. Besides, the inhibition at 50 µM in experiment [2] was 22.9%.

With `Cc1ccc(CN2CC(C(=O)N(C)Cc3ccc(Cl)c(Cl)c3)CC2=O)cc1` (centres unmarked) [W000113407_J11], on acid ceramidase (AC), the IC50 is 23.9 µM and the inhibition at 20 µM is 59.2%. The inhibition at 50 µM in experiment [2] amounted to 20.8%.

Take `C=CCNC(=S)Nc1ccc(Cl)c([N+](=O)[O-])c1` [W000113403_I18]: on acid ceramidase (AC), the IC50 came out at 10.6 µM and the inhibition at 20 µM worked out at 63.4%. The inhibition at 50 µM in experiment [2] worked out at 23.4%.

For the molecule `CC1CCCCN1C(=O)Nc1ccc(Oc2ccccc2)cc1` (centres unmarked) [W000113402_O07], on acid ceramidase (AC), the IC50 was 7.9 µM and the inhibition at 20 µM turned out to be 53.8%. In experiment [2], the inhibition at 50 µM is 8.5%.

On to `CCCCc1ccc(C(=O)CCC2C(=O)c3ccccc3C2=O)cc1` [W000113414_D15], for which, on acid ceramidase (AC), the IC50 was 36.7 µM and the inhibition at 20 µM turned out to be 60.4%. Besides, the inhibition at 50 µM in experiment [2] was -1.3%.

`Cc1cc(O[C@H](c2ccc(C(=O)NC[C@H](O)C(=O)O)s2)C(C)C)cc(C)c1-c1ccc(C(F)(F)F)cc1` [W000113414_H19]: on acid ceramidase (AC), 11.1 µM corresponded to half-maximal inhibition (IC50) and the inhibition at 20 µM was 61.4%. Besides, the inhibition at 20 µM in experiment [1] worked out at 32%. Also, the inhibition at 50 µM in experiment [2] is -8.9%.

Consider `CC(OC(=O)c1c2c(nc3ccccc13)/C(=C/c1cccs1)CC(C(C)(C)C)C2)C(=O)Nc1ccc(C(N)=O)cc1` (centres unmarked) [W000113400_H06], for which, at acid ceramidase (AC), the IC50 amounted to 15.8 µM and the inhibition at 20 µM is 41.7%. Besides, the inhibition at 50 µM in experiment [2] was determined as 35.6%.
